According to patent publication US20250275976A1, “Methods of Treating Neuroinflammatory Conditions” (Athira Pharma, Inc., priority 2022, published 2025):
Square brackets hold non-standard residues; d marks the D form. Peptide text beside a SMILES is read from it. * marks the point of attachment. Hexanoyl = CCCCCC(=O)*; Ahx = NCCCCCC(=O)O

How the values were obtained:
[1] = tested on: Rat primary cortical neuron cultures; test: Neuroprotection of rat cortical neurons against LPS challenge (Cell Titer-Glo); details: for Significance of neuroprotection vs 1 uM LPS: LPS 24 h
Protocol: To assess the neuroprotective effect of compound treatment against inflammatory insult, primary cultured cortical neurons were subjected to lipopolysaccharide (LPS) treatment for 24h along with various compound doses of compounds of Formula (I) or Compound A19. […] Rat primary cortical neuron cultures were grown at 37° C., 5% C02 in Complete Neurobasal Medium supplemented with B27/GDNF/BDNF containing 10% FBS until maturity. 25 μl of culture volume were seeded in a 384-well plate at 5,000 cells/well, and treated with 1 μM, 100 nM, 10 nM, 1 nM, or 0.1 nM of test compound for 15 minutes. Cells were then subjected to 1 μM LPS challenge for 24 hours. Luminescence measurements to assess relative levels of ATP were performed on an Envision plate reader (Perkin Elmer). Data for DMSO control were set to 100% cell viability, and each group (n=4) were averaged and presented as mean±SEM.

[2] = tested on: Rat primary cortical neuron cultures; test: Neuroprotection of rat primary cortical neurons against neurotoxic insults (Cell Titer-Glo viability); type: cell-based
Excerpt: HGF/MET signaling activation is expected to protect cells, including neurons, from cell death. […] Hydrogen peroxide (H2O2) treatment produces toxic oxidative stress. Bacteria-derived lipopolysaccharide (LPS) treatment induces inflammatory cell death. Treatment with excess glutamate (Glut) produces excitotoxicity in neuron cultures. Treatment with 1-methyl-4-phenylpyridinium (MPP^+) causes cell death by inhibition of mitochondrial function.
Cells were then subjected to individual conditional insults for 24 hours at the following concentrations: H2O2 at 1 uM, LPS at 1 uM, glutamate at 25 uM, or MPP+ at 500 uM. All treatments contained recombinant human HGF (R&D Systems) at a concentration of 5 ng/ml. MK-801 (Dizocilpine) is a pore blocker of the N-Methyl-D-aspartate (NMDA) receptor, a glutamate receptor, and was used as a positive control.
Data was normalized to DMSO+HGF control set at 100% cell viability.
Data are reported as statistical significance vs. insult control, with NS=not significant, +=p<0.05, ++=p<0.01, and +++=p<0.001.

[3] = tested on: THP-1-differentiated macrophages; test: Pro-inflammatory cytokines in supernatants of LPS-challenged THP-1-differentiated macrophages; type: cell-based, human; set-up: key to Significant reduction in pro-inflammatory cytokine expression: IL-6 / Significant reduction in pro-inflammatory cytokine expression: TNF-α / Significant reduction in pro-inflammatory cytokine expression: IL-1β: “NS” indicates a non-significant reduction in the indicated cytokine; “+” indicates a p value <0.05 in Tukey post test; “++” indicates a p value <0.01 in Tukey post test; details: for Significant reduction in pro-inflammatory cytokine expression: IL-1β / Significant reduction in pro-inflammatory cytokine expression: IL-6 / Significant reduction in pro-inflammatory cytokine expression: TNF-α: LPS 24 hrs
Excerpt: Neuroinflammation plays a crucial role in disease progression and is a complex phenomenon involving various cells that affect many extra- and intracellular signaling pathways and cytokine production. The macrophage of the brain (microglia) is the main agent of innate immunity in the CNS and performs various functions, including neuroprotection, in response to inflammatory signals. Activated microglia participate in developing neuroinflammation, responding to toxic exogenous substances (like LPS) or endogenous substances (like amyloid-beta). Here, THP-1 cells were used as an in-vitro cell model to evaluate mechanisms relevant to CNS inflammation. Differentiation with phorbol-12-myristate-13-acetate (PMA) causes THP-1 monocyte cells to acquire functional and morphological resemblance to macrophages. LPS interacts with THP-1 differentiated macrophage through the toll-like receptor 4, triggering the inflammatory response and stimulating pro-inflammatory cytokine release and eventually leading to cellular death. Test compounds were investigated for whether they have anti-inflammatory effects on LPS-challenged macrophage cultures. THP-1-differentiated macrophages were treated with test compounds for 20 minutes, followed by 24 hrs of LPS challenge. Culture supernatants were then collected to analyzed for the presence of pro-inflammatory cytokines: interleukin 1β (IL--1β), interleukin 6 (IL-6) and tumor necrosis factor α (TNF-α).
Cytokine quantification in cell culture supernatants was accomplished by homogeneous time resolved fluorescence (HTRF) kits to assess levels of IL-1β (Human IL-1β kit, #62HIL1BPEG, Cisbio) and IL-6 (Human IL-6 kit, 62HILO6PET, Cisbio), and by ELISA (Human TNF-α ELISA kit, KHC3011, ThermoFisher) to determine the levels of TNF-α.
Data analysis was performed via 1-way ANOVA with Tukey post-test compared to LPS treatment cultures using Prism statistical software (GraphPad). Tabular data indicates significance of reduction in culture supernatants for the indicated analyte at the indicated dose.

## CCCCCC(=O)N[C@@H](Cc1ccc(O)cc1)C(=O)N[C@H](C(=O)NCCCCCC(N)=O)[C@@H](C)CC [Compound A19 active metabolite, dihexa] (Hexanoyl-Tyr-Ile-[Ahx]-NH2)
[1]; at at least one dose tested
  Protection of primary neurons from LPS-stimulated inflammatory toxicity (in words): protected primary neurons from LPS-stimulated inflammatory toxicity
[1]; dose 0.1 nM
  Significance of neuroprotection vs 1 uM LPS: +++ (+++ indicates p<0.001)
[1]; dose 1 nM
  Significance of neuroprotection vs 1 uM LPS: ++ (++ indicates p<0.01)
[1]; dose 10 nM
  Significance of neuroprotection vs 1 uM LPS: +++ (+++ indicates p<0.001)
[1]; dose 100 nM
  Significance of neuroprotection vs 1 uM LPS: ++ (++ indicates p<0.01)
[1]; dose 1 μM
  Significance of neuroprotection vs 1 uM LPS: ++ (++ indicates p<0.01)
[2]; Glutamate (25 uM) insult, [Compound A19 active metabolite] 0.1 nM + HGF (5 ng/ml)
  Statistical significance vs. insult control (cell viability): + (+ = p < 0.05)
[2]; Glutamate (25 uM) insult, [Compound A19 active metabolite] 1 nM + HGF (5 ng/ml)
  Statistical significance vs. insult control (cell viability): ++ (++ = p < 0.01)
[2]; Glutamate (25 uM) insult, [Compound A19 active metabolite] 100 nM (second column headed 100 nM) + HGF (5 ng/ml)
  Statistical significance vs. insult control (cell viability): + (+ = p < 0.05)
[2]; Glutamate (25 uM) insult, [Compound A19 active metabolite] 100 nM + HGF (5 ng/ml)
  Statistical significance vs. insult control (cell viability): + (+ = p < 0.05)
[2]; H2O2 (1 uM) insult, [Compound A19 active metabolite] 0.1 nM + HGF (5 ng/ml)
  Statistical significance vs. insult control (cell viability): +++ (+++ = p < 0.001)
[2]; H2O2 (1 uM) insult, [Compound A19 active metabolite] 1 nM + HGF (5 ng/ml)
  Statistical significance vs. insult control (cell viability): +++ (+++ = p < 0.001)
[2]; H2O2 (1 uM) insult, [Compound A19 active metabolite] 100 nM (second column headed 100 nM) + HGF (5 ng/ml)
  Statistical significance vs. insult control (cell viability): +++ (+++ = p < 0.001)
[2]; H2O2 (1 uM) insult, [Compound A19 active metabolite] 100 nM + HGF (5 ng/ml)
  Statistical significance vs. insult control (cell viability): +++ (+++ = p < 0.001)
[2]; H2O2 (1 uM) insult, [Compound A19 active metabolite] 1 uM + HGF (5 ng/ml)
  Statistical significance vs. insult control (cell viability): +++ (+++ = p < 0.001)
[2]; H2O2, glutamate, LPS, MPP+, broad range of concentrations
  Neuroprotection against the cohort of insults (result in words): effective neuroprotective treatment at a broad range of concentrations against the entire cohort of insults tested
[2]; LPS (1 uM) insult, [Compound A19 active metabolite] 0.1 nM + HGF (5 ng/ml)
  Statistical significance vs. insult control (cell viability): ++ (++ = p < 0.01)
[2]; LPS (1 uM) insult, [Compound A19 active metabolite] 1 nM + HGF (5 ng/ml)
  Statistical significance vs. insult control (cell viability): ++ (++ = p < 0.01)
[2]; LPS (1 uM) insult, [Compound A19 active metabolite] 100 nM (second column headed 100 nM) + HGF (5 ng/ml)
  Statistical significance vs. insult control (cell viability): +++ (+++ = p < 0.001)
[2]; LPS (1 uM) insult, [Compound A19 active metabolite] 100 nM + HGF (5 ng/ml)
  Statistical significance vs. insult control (cell viability): ++ (++ = p < 0.01)
[2]; LPS (1 uM) insult, [Compound A19 active metabolite] 1 uM + HGF (5 ng/ml)
  Statistical significance vs. insult control (cell viability): ++ (++ = p < 0.01)
[2]; MPP+ (500 uM) insult, [Compound A19 active metabolite] 0.1 nM + HGF (5 ng/ml)
  Statistical significance vs. insult control (cell viability): +++ (+++ = p < 0.001)
[2]; MPP+ (500 uM) insult, [Compound A19 active metabolite] 1 nM + HGF (5 ng/ml)
  Statistical significance vs. insult control (cell viability): +++ (+++ = p < 0.001)
[2]; MPP+ (500 uM) insult, [Compound A19 active metabolite] 100 nM (second column headed 100 nM) + HGF (5 ng/ml)
  Statistical significance vs. insult control (cell viability): +++ (+++ = p < 0.001)
[2]; MPP+ (500 uM) insult, [Compound A19 active metabolite] 100 nM + HGF (5 ng/ml)
  Statistical significance vs. insult control (cell viability): +++ (+++ = p < 0.001)
[2]; MPP+ (500 uM) insult, [Compound A19 active metabolite] 1 uM + HGF (5 ng/ml)
  Statistical significance vs. insult control (cell viability): +++ (+++ = p < 0.001)
[3]; at at least one tested dose
  Expression of IL-1β and TNF-α (result in words): significantly reduced
  Expression of IL-6 (result in words): significantly reduced
[3]; dose 0.1 nM
  Significant reduction in pro-inflammatory cytokine expression: IL-1β: NS
  Significant reduction in pro-inflammatory cytokine expression: IL-6: NS
  Significant reduction in pro-inflammatory cytokine expression: TNF-α: NS
[3]; dose 10 nM
  Significant reduction in pro-inflammatory cytokine expression: IL-1β: ++ (“++” indicates a p value <0.01 in Tukey post test)
  Significant reduction in pro-inflammatory cytokine expression: IL-6: + (“+” indicates a p value <0.05 in Tukey post test)
  Significant reduction in pro-inflammatory cytokine expression: TNF-α: + (“+” indicates a p value <0.05 in Tukey post test)
[3]; dose 1000 nM
  Significant reduction in pro-inflammatory cytokine expression: IL-1β: + (“+” indicates a p value <0.05 in Tukey post test)
  Significant reduction in pro-inflammatory cytokine expression: IL-6: ++ (“++” indicates a p value <0.01 in Tukey post test)
  Significant reduction in pro-inflammatory cytokine expression: TNF-α: ++ (“++” indicates a p value <0.01 in Tukey post test)
